Data on ten compounds can be found in PubChem BioAssay (NCI).

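Tested at 5 concentrations; 48 h exposure; 96-well plates; endpoints linearly interpolated, else capped at highest concentration. GI50 = concentration required for 50% inhibition of growth. The concentration for full growth arrest is given as TGI.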 Where only a bound is given, the exact number is not on record here.

Among the test systems are OVCAR-5 ovarian; HL-60(TB) leukemia; UO-31 renal; EKVX NSCLC; SR leukemia; SW-620 colon; MALME-3M melanoma; LOX IMVI melanoma; HCT-116 colon; U251 CNS.
Holding throughout (assay): NCI-60 cell line screen, 48 h

As to `O=C(NNC(=O)/C(=C/c1cccc([N+](=O)[O-])c1)NC(=O)c1ccccc1)Nc1ccc(Cl)cc1`, the TGI is 32.4 µM with OVCAR-5 ovarian; 30.3 µM in the test on HL-60(TB) leukemia; 27.3 µM in the test on UO-31 renal; 44 µM in the test with EKVX NSCLC; 28.1 µM with SR leukemia; 28.5 µM in the test on SW-620 colon. For the same compound, the TGI with MALME-3M melanoma was 30 µM; in the test with LOX IMVI melanoma, 30.2 µM; in the test on HCT-116 colon, 26.2 µM; with U251 CNS, 28.4 µM.

For `C=C1CC2(CC(c3ccccc3C)OC(c3ccccc3C)C2)OC1=O` (stereo not given), the TGI is 26.5 µM in the test on OVCAR-5 ovarian; 11.6 µM in the test on HL-60(TB) leukemia; 11.3 µM with UO-31 renal; 30.1 µM in the test with EKVX NSCLC; over 26.8 µM in the test on SR leukemia; 3.59 µM with SW-620 colon. The TGI with MALME-3M melanoma worked out at 3.29 µM; in the test with LOX IMVI melanoma, 3.05 µM; in the test on HCT-116 colon, 3.21 µM; in the test on U251 CNS, 25.9 µM.

On to `CN1c2cccc[c]2[Sn]([CH3])([CH3])[c]2ccccc21`, for which the GI50 with OVCAR-5 ovarian was under 0.0115 µM; in the test with HL-60(TB) leukemia, under 0.01 µM; with UO-31 renal, 0.0374 µM; in the test with EKVX NSCLC it was under 0.01 µM; in the test on SR leukemia, under 0.01 µM; in the test on SW-620 colon, 0.019 µM. In addition, the GI50 is under 0.0238 µM with MALME-3M melanoma, 0.0107 µM in the test on LOX IMVI melanoma, under 0.0107 µM in the test on HCT-116 colon and under 0.016 µM with U251 CNS. The TGI in the test with OVCAR-5 ovarian was 0.264 µM; in the test with HL-60(TB) leukemia it was 0.0569 µM; in the test with UO-31 renal it was 0.182 µM; with EKVX NSCLC, under 0.0249 µM; in the test with SR leukemia, 0.0387 µM; with SW-620 colon, 0.0675 µM. Moreover, the TGI in the test with MALME-3M melanoma was 0.226 µM; with LOX IMVI melanoma, 0.0304 µM; in the test on HCT-116 colon, under 0.0161 µM; in the test with U251 CNS it was 0.134 µM.

In the case of `O=C1NC(=O)/C(=C/c2ccc3nccc(-c4ccncc4)c3c2)S1`, the GI50 with OVCAR-5 ovarian was 0.326 µM; in the test on HL-60(TB) leukemia, 0.325 µM; in the test on UO-31 renal, 0.14 µM; with EKVX NSCLC, 0.407 µM; in the test on SR leukemia, 0.547 µM; in the test on SW-620 colon it was 0.517 µM. Moreover, the GI50 in the test on MALME-3M melanoma is 0.288 µM; with LOX IMVI melanoma it was 0.247 µM; in the test on HCT-116 colon it was 0.466 µM; in the test on U251 CNS it was 0.261 µM. Also, the TGI is 3.89 µM in the test on OVCAR-5 ovarian; over 6.77 µM in the test with HL-60(TB) leukemia; 1.05 µM in the test on UO-31 renal; 3.67 µM in the test with EKVX NSCLC; 4.88 µM in the test on SR leukemia; over 10 µM in the test on SW-620 colon. The TGI is 2.12 µM with MALME-3M melanoma, 2.73 µM with LOX IMVI melanoma, over 5.61 µM in the test on HCT-116 colon and 2.23 µM in the test with U251 CNS.

With `O=C(C#Cc1ccccc1)N1CCCCC1`, the TGI with OVCAR-5 ovarian, in the test on HL-60(TB) leukemia, in the test with EKVX NSCLC, in the test on SR leukemia, in the test with SW-620 colon and in the test with MALME-3M melanoma was over 100 µM each time. For the same compound, the TGI in the test on LOX IMVI melanoma was over 100 µM; in the test on HCT-116 colon, 67.5 µM; with U251 CNS, over 100 µM.

On to `CC(C)(C)c1cc([Si](C)(C)C)c(C#N)c([Si](C)(C)C)c1`, for which the TGI with OVCAR-5 ovarian is over 100 µM; in the test with HL-60(TB) leukemia, 44.2 µM; with UO-31 renal, over 100 µM; with EKVX NSCLC, over 100 µM; in the test on SR leukemia it was 85.5 µM; in the test on SW-620 colon, over 100 µM. Besides, the TGI in the test with MALME-3M melanoma, in the test on LOX IMVI melanoma, in the test on HCT-116 colon and in the test on U251 CNS was over 100 µM in each case.

For the compound `c1ccc(OCC[P+](c2ccccc2)(c2ccccc2)c2ccccc2)cc1`, the GI50 with OVCAR-5 ovarian was 2.66 µM; in the test on HL-60(TB) leukemia, 0.275 µM; with UO-31 renal it was 16.9 µM; with EKVX NSCLC it was 0.701 µM; with SR leukemia, 2.31 µM; with SW-620 colon, 1.76 µM. For the same compound, the GI50 with MALME-3M melanoma was 1.48 µM; in the test on LOX IMVI melanoma, 0.926 µM; in the test with HCT-116 colon it was 0.491 µM; with U251 CNS it was 0.99 µM. In addition, the TGI is 20.6 µM in the test on OVCAR-5 ovarian; 1.45 µM with HL-60(TB) leukemia; over 79 µM in the test with UO-31 renal; over 40.1 µM in the test with EKVX NSCLC; 12.3 µM in the test with SR leukemia; 11.8 µM in the test with SW-620 colon. In addition, the TGI with MALME-3M melanoma came to 12.9 µM; with LOX IMVI melanoma, 9.68 µM; in the test with HCT-116 colon, 11.3 µM; in the test on U251 CNS, 13 µM.

For `O=C(Nc1ccc(-c2cn3ccccc3n2)cc1)c1cc(Br)ccc1O`, the TGI in the test with OVCAR-5 ovarian, in the test on HL-60(TB) leukemia, in the test on EKVX NSCLC, in the test with SR leukemia, in the test with SW-620 colon and in the test with MALME-3M melanoma was over 100 µM in each case. In addition, the TGI in the test on LOX IMVI melanoma, in the test with HCT-116 colon and in the test on U251 CNS was over 100 µM throughout.

`Oc1ccccc1-c1cnnc(-c2ccccc2O)c1`: the TGI in the test on OVCAR-5 ovarian is 61.8 µM; with HL-60(TB) leukemia, 44.1 µM; in the test with UO-31 renal it was 44.3 µM; with EKVX NSCLC, 92.9 µM; with SR leukemia, 75.1 µM; in the test on SW-620 colon, over 100 µM. Besides, the figures for the TGI with MALME-3M melanoma, with LOX IMVI melanoma and in the test with HCT-116 colon were 64.7 µM, 41 µM and 44.2 µM, respectively.

On to `Nc1nc(N)c2c(n1)NC(c1ccc(Cl)cc1)C1CCc3ccccc3C1=N2` (stereo not given), for which the GI50 in the test on OVCAR-5 ovarian is 14.9 µM; in the test on UO-31 renal it was 3.63 µM; in the test with EKVX NSCLC, 3.62 µM; in the test with SR leukemia it was 1.73 µM; in the test with SW-620 colon it was 8.23 µM; in the test with MALME-3M melanoma, 8.48 µM. Also, the GI50 with LOX IMVI melanoma was 3.53 µM; in the test with HCT-116 colon, 3.72 µM; with U251 CNS it was 3.81 µM. For the same compound, the TGI in the test on OVCAR-5 ovarian was 28.1 µM; in the test with UO-31 renal, 17.4 µM; in the test with EKVX NSCLC, 21 µM; with SR leukemia it was 5.01 µM; in the test on SW-620 colon, 22.6 µM; in the test with MALME-3M melanoma it was 22.8 µM. For the same compound, the values for the TGI with LOX IMVI melanoma, with HCT-116 colon and with U251 CNS were 16.2 µM, 14.9 µM and 16.3 µM, respectively.
